According to ChEMBL document CHEMBL1145176, “Somatostatin receptor 1 selective analogues: 2. N(alpha)-Methylated scan” (J Med Chem, 2005):
Positions of bridges follow the written chain, without caps; N, C: chain ends. Non-standard residues stand in square brackets, D forms with d. Residues, ends and D or L forms follow the SMILES beside them. NMePhe(4-CH2NHiPr) = CN[C@@H](Cc1ccc(CNC(C)C)cc1)C(=O)O; Phe(4-CH2NHiPr) = CC(C)NCc1ccc(C[C@H](N)C(=O)O)cc1

Assays:
[1] = target: Somatostatin receptor type 2 (Homo sapiens, UniProt P30874); experiment: Inhibition of [Leu8,D-Trp22,125I-Tyr25]SRIF-28 binding to human somatostatin receptor type 2
[2] = target: Somatostatin receptor type 4 (Homo sapiens, UniProt P31391); experiment: Inhibition of [Leu8,D-Trp22,125I-Tyr25]SRIF-28 binding to human somatostatin receptor type 4
[3] = target: Somatostatin receptor type 1 (Homo sapiens, UniProt P30872); experiment: Inhibition of [Leu8,D-Trp22,125I-Tyr25]SRIF-28 binding to human somatostatin receptor type 1
[4] = target: Somatostatin receptor type 5 (Homo sapiens, UniProt P35346); experiment: Inhibition of [Leu8,D-Trp22,125I-Tyr25]SRIF-28 binding to human somatostatin receptor type 5
[5] = target: Somatostatin receptor type 3 (Homo sapiens, UniProt P32745); experiment: Inhibition of [Leu8,D-Trp22,125I-Tyr25]SRIF-28 binding to human somatostatin receptor type 3
Somatostatin receptor type 3, sequence (P32745 whole entry): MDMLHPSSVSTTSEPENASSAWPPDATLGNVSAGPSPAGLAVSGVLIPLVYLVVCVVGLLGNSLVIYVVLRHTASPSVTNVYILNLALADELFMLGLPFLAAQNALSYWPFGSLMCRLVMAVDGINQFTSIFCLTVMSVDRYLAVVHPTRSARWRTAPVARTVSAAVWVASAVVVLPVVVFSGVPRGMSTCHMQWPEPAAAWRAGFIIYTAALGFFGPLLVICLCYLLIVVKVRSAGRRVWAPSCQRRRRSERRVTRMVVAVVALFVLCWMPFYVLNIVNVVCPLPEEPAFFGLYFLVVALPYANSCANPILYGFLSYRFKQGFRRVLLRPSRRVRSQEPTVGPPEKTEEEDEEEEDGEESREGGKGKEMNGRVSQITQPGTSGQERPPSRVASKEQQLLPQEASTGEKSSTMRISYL

Somatostatin receptor type 1, sequence (P30872 whole entry): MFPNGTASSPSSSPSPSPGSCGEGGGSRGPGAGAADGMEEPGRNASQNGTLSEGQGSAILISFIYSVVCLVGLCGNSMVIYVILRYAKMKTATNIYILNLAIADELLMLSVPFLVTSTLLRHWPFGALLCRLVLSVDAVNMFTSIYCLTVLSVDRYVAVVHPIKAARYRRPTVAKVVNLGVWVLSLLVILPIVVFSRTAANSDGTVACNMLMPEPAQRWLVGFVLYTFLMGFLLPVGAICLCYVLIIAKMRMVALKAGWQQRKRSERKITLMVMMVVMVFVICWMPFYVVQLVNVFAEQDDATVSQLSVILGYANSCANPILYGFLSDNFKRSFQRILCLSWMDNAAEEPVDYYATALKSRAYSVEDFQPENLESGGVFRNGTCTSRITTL
Somatostatin receptor type 4, sequence (P31391 whole entry): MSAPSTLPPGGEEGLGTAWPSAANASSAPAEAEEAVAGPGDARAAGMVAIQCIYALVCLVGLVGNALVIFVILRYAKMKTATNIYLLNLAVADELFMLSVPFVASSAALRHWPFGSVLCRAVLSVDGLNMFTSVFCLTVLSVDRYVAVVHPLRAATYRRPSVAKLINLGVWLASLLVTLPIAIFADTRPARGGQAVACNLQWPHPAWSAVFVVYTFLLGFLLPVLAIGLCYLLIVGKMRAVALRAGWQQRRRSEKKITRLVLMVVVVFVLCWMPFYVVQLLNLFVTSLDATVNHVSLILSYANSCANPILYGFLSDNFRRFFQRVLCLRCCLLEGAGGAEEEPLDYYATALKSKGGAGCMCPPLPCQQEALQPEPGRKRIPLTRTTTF
Somatostatin receptor type 2, sequence (P30874 whole entry): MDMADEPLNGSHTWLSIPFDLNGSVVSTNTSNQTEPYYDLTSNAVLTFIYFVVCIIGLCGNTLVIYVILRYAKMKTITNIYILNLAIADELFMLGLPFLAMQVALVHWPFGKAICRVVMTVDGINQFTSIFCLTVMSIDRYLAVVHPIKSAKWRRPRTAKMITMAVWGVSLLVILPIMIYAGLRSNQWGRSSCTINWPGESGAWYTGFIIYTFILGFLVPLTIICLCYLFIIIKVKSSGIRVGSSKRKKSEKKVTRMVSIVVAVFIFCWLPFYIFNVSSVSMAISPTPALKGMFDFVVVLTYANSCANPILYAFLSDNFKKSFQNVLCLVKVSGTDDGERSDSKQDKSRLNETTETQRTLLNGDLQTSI
Somatostatin receptor type 5, sequence (P35346 whole entry): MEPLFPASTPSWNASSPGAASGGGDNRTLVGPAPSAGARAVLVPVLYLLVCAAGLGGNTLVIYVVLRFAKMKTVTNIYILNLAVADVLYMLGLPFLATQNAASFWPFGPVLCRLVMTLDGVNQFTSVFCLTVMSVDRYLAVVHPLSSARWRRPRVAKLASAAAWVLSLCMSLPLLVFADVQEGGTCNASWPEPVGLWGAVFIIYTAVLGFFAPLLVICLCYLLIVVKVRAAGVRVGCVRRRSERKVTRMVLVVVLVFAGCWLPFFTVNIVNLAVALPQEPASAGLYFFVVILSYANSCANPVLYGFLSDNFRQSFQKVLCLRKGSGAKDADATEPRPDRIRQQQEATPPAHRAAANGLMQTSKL

Row | SMILES | IC50 [1] | IC50 [2] | IC50 [3] | IC50 [4] | IC50 [5]
1 | CC(C)NCc1ccc(C[C@@H]2NC(=O)[C@@H](Cc3ccc4ccccc4c3)NC(=O)[C@H](Cc3ccccc3)NC(=O)[C@H](Cc3ccccc3)NC(=O)[C@H](CCCCN)NC(=O)[C@@H](N)CSSC[C@@H](C(=O)O)NC(=O)[C@H](CO)NC(=O)[C@H]([C@@H](C)O)N(C)C(=O)[C@H](Cc3ccccc3)NC(=O)[C@H]([C@@H](C)O)NC2=O)cc1 | > 1000 nM | 417 nM | 176 nM | > 1000 nM | > 1000 nM
2 | CC(C)NCc1ccc(C[C@@H]2NC(=O)[C@H](N(C)C(=O)c3ccc4ccccc4c3)NC(=O)[C@H](Cc3ccccc3)NC(=O)[C@H](Cc3ccccc3)NC(=O)[C@H](CCCCN)NC(=O)[C@@H](N)CSSC[C@@H](C(=O)O)NC(=O)[C@H](CO)NC(=O)[C@H]([C@@H](C)O)NC(=O)[C@H](Cc3ccc(O)c(I)c3)NC(=O)[C@H]([C@@H](C)O)NC2=O)cc1 | > 1000 nM | 435 nM | 6.7 nM | > 1000 nM | 536 nM
3 | CC(C)NCc1ccc(C[C@@H]2NC(=O)[C@@H](Cc3ccc4ccccc4c3)NC(=O)[C@H](Cc3ccccc3)NC(=O)[C@H](Cc3ccccc3)NC(=O)[C@H](CCCCN)NC(=O)[C@@H](N)CSSC[C@@H](C(=O)O)NC(=O)[C@H](CO)NC(=O)[C@H]([C@@H](C)O)NC(=O)[C@H](Cc3ccccc3)N(C)C(=O)[C@H]([C@@H](C)O)NC2=O)cc1 | > 1000 nM | > 1000 nM | 583 nM | > 1000 nM | > 1000 nM
4 | CC(C)NCc1ccc(C[C@@H]2NC(=O)[C@@H](Cc3ccc4ccccc4c3)NC(=O)[C@H](Cc3ccccc3)NC(=O)[C@H](Cc3ccccc3)NC(=O)[C@H](CCCCN)NC(=O)[C@@H](N)CSSC[C@@H](C(=O)O)NC(=O)[C@H](CO)NC(=O)[C@H]([C@@H](C)O)NC(=O)[C@H](Cc3ccccc3)NC(=O)[C@H]([C@@H](C)O)N(C)C2=O)cc1 | > 1000 nM | > 1000 nM | > 1000 nM | > 1000 nM | > 1000 nM
5 | CC(C)NCc1ccc(C[C@@H]2NC(=O)[C@@H](Cc3c[nH]c4ccccc34)NC(=O)[C@H](Cc3ccccc3)NC(=O)[C@H](Cc3ccccc3)NC(=O)[C@H](CCCCN)NC(=O)[C@@H](N)CSSC[C@@H](C(=O)N[C@@H](CCCCN)C(=O)N[C@@H](CCCCN)C(=O)O)NC(=O)[C@H](CO)N(C)C(=O)[C@H]([C@@H](C)O)NC(=O)[C@H](Cc3ccccc3)NC(=O)[C@H]([C@@H](C)O)NC2=O)cc1 | > 1000 nM | > 1000 nM | 53 nM | 682 nM | > 1000 nM
6 | CC(C)NCc1ccc(C[C@@H]2NC(=O)[C@@H](Cc3ccc4ccccc4c3)NC(=O)[C@H](Cc3ccccc3)N(C)C(=O)[C@H](Cc3ccccc3)NC(=O)[C@H](CCCCN)NC(=O)[C@@H](N)CSSC[C@@H](C(=O)O)NC(=O)[C@H](CO)NC(=O)[C@H]([C@@H](C)O)NC(=O)[C@H](Cc3ccccc3)NC(=O)[C@H]([C@@H](C)O)NC2=O)cc1 | > 1000 nM | > 1000 nM | > 1000 nM | > 1000 nM | > 1000 nM
7 | CC(C)NCc1ccc(C[C@@H]2NC(=O)[C@@H](Cc3ccc4ccccc4c3)NC(=O)[C@H](Cc3ccccc3)NC(=O)[C@H](Cc3ccccc3)NC(=O)[C@H](CCCCN)NC(=O)[C@@H](N)CSSC[C@@H](C(=O)O)N(C)C(=O)[C@H](CO)NC(=O)[C@H]([C@@H](C)O)NC(=O)[C@H](Cc3ccccc3)NC(=O)[C@H]([C@@H](C)O)NC2=O)cc1 | > 1000 nM | > 1000 nM | 260 nM | > 1000 nM | > 1000 nM
8 | CC(C)NCc1ccc(C[C@H]2C(=O)N[C@@H]([C@@H](C)O)C(=O)N[C@@H](Cc3ccccc3)C(=O)N[C@@H]([C@@H](C)O)C(=O)N[C@@H](CO)C(=O)N[C@H](C(=O)O)CSSC[C@H](N)C(=O)N[C@@H](CCCCN)C(=O)N[C@@H](Cc3ccccc3)C(=O)N[C@@H](Cc3ccccc3)C(=O)N[C@H](Cc3c[nH]c4ccccc34)C(=O)N2C)cc1 (H-CKFF[dW][NMePhe(4-CH2NHiPr)]TFTSC-OH; disulfide 1-11) | > 1000 nM | 226 nM | 10 nM | > 1000 nM | 1030 nM
9 | CN[C@H]1CSSC[C@@H](C(=O)O)NC(=O)[C@H](CO)NC(=O)[C@H]([C@@H](C)O)NC(=O)[C@H](Cc2ccccc2)NC(=O)[C@H]([C@@H](C)O)NC(=O)[C@H](Cc2ccc(CNC(C)C)cc2)NC(=O)[C@@H](Cc2ccc3ccccc3c2)NC(=O)[C@H](Cc2ccccc2)NC(=O)[C@H](Cc2ccccc2)NC(=O)[C@H](CCCCN)NC1=O | > 1000 nM | > 1000 nM | 113 nM | > 1000 nM | > 1000 nM
10 | CC(C)NCc1ccc(C[C@@H]2NC(=O)[C@@H](Cc3c[nH]c4ccccc34)NC(=O)[C@H](Cc3ccccc3)NC(=O)[C@H](Cc3ccccc3)NC(=O)[C@H](CCCCN)NC(=O)[C@@H](N)CSSC[C@@H](C(=O)N[C@@H](CCCCN)C(=O)N[C@@H](CCCCN)C(=O)N[C@@H](CCCCN)C(=O)O)N(C)C(=O)[C@H](CO)NC(=O)[C@H]([C@@H](C)O)NC(=O)[C@H](Cc3ccccc3)NC(=O)[C@H]([C@@H](C)O)NC2=O)cc1 | > 1000 nM | > 1000 nM | 30 nM | 803 nM | > 1000 nM
11 | CC(C)NCc1ccc(C[C@@H]2NC(=O)[C@@H](Cc3ccc4ccccc4c3)NC(=O)[C@H](Cc3ccccc3)NC(=O)[C@H](Cc3ccccc3)N(C)C(=O)[C@H](CCCCN)NC(=O)[C@@H](N)CSSC[C@@H](C(=O)O)NC(=O)[C@H](CO)NC(=O)[C@H]([C@@H](C)O)NC(=O)[C@H](Cc3ccccc3)NC(=O)[C@H]([C@@H](C)O)NC2=O)cc1 | > 1000 nM | > 1000 nM | > 1000 nM | > 1000 nM | > 1000 nM
12 | CC(C)NCc1ccc(C[C@@H]2NC(=O)[C@@H](Cc3ccc4ccccc4c3)NC(=O)[C@H](Cc3ccccc3)NC(=O)[C@H](Cc3ccccc3)NC(=O)[C@H](CCCCN)N(C)C(=O)[C@@H](N)CSSC[C@@H](C(=O)O)NC(=O)[C@H](CO)NC(=O)[C@H]([C@@H](C)O)NC(=O)[C@H](Cc3ccccc3)NC(=O)[C@H]([C@@H](C)O)NC2=O)cc1 | > 1000 nM | > 1000 nM | 535 nM | > 1000 nM | > 1000 nM
13 | CC(C)NCc1ccc(C[C@@H]2NC(=O)[C@@H](Cc3ccc4ccccc4c3)NC(=O)[C@H](Cc3ccccc3)NC(=O)[C@H](Cc3ccccc3)NC(=O)[C@H](CCCCN)NC(=O)[C@@H](N)CSSC[C@@H](C(=O)N[C@@H](CCCCN)C(=O)O)N(C)C(=O)[C@H](CO)NC(=O)[C@H]([C@@H](C)O)NC(=O)[C@H](Cc3ccccc3)NC(=O)[C@H]([C@@H](C)O)NC2=O)cc1 | > 1000 nM | > 1000 nM | 255 nM | > 1000 nM | > 1000 nM
14 | CC(C)NCc1ccc(C[C@@H]2NC(=O)[C@H](Cc3c[nH]c4ccccc34)NC(=O)[C@H](Cc3ccccc3)NC(=O)[C@H](Cc3ccccc3)NC(=O)[C@H](CCCCN)NC(=O)[C@@H](N)CSSC[C@@H](C(=O)O)NC(=O)[C@H](CO)NC(=O)[C@H]([C@@H](C)O)NC(=O)[C@H](Cc3ccc(O)cc3)NC(=O)[C@H]([C@@H](C)O)NC2=O)cc1 (H-CKFFW[Phe(4-CH2NHiPr)]TYTSC-OH; disulfide 1-11) | > 1000 nM | 384 nM | 15 nM | > 1000 nM | > 1000 nM
15 | CC(C)NCc1ccc(C[C@@H]2NC(=O)[C@@H](Cc3ccc4ccccc4c3)N(C)C(=O)[C@H](Cc3ccccc3)NC(=O)[C@H](Cc3ccccc3)NC(=O)[C@H](CCCCN)NC(=O)[C@@H](N)CSSC[C@@H](C(=O)O)NC(=O)[C@H](CO)NC(=O)[C@H]([C@@H](C)O)NC(=O)[C@H](Cc3ccccc3)NC(=O)[C@H]([C@@H](C)O)NC2=O)cc1 | > 1000 nM | > 1000 nM | 325 nM | > 1000 nM | > 1000 nM
16 | C[C@@H](O)[C@@H]1NC(=O)[C@H](Cc2ccc(O)cc2)NC(=O)[C@H]([C@@H](C)O)NC(=O)[C@H](CCCCN)NC(=O)[C@@H](Cc2c[nH]c3ccccc23)NC(=O)[C@H](Cc2ccccc2)NC(=O)[C@H](Cc2ccccc2)NC(=O)[C@H](CCCCN)NC(=O)[C@@H](N)CSSC[C@@H](C(=O)O)NC(=O)[C@H](CO)NC1=O | 16 nM | 0.5 nM | 10 nM | 4.8 nM | 8 nM
17 | CN[C@H]1CSSC[C@@H](C(=O)O)NC(=O)[C@H](CO)NC(=O)[C@H]([C@@H](C)O)NC(=O)[C@H](Cc2ccccc2)NC(=O)[C@H]([C@@H](C)O)NC(=O)[C@H](Cc2ccc(CNC(C)C)cc2)NC(=O)[C@@H](Cc2c[nH]c3ccccc23)NC(=O)[C@H](Cc2ccccc2)NC(=O)[C@H](Cc2ccccc2)NC(=O)[C@H](CCCCN)NC1=O | > 1000 nM | > 1000 nM | 14 nM | > 1000 nM | > 1000 nM
18 | CC(C)NCc1ccc(C[C@@H]2NC(=O)[C@@H](Cc3c[nH]c4ccccc34)NC(=O)[C@H](Cc3ccccc3)NC(=O)[C@H](Cc3ccccc3)NC(=O)[C@H](CCCCN)NC(=O)[C@@H](N)CSSC[C@@H](C(=O)N[C@@H](CCCCN)C(=O)O)N(C)C(=O)[C@H](CO)NC(=O)[C@H]([C@@H](C)O)NC(=O)[C@H](Cc3ccccc3)NC(=O)[C@H]([C@@H](C)O)NC2=O)cc1 | > 1000 nM | > 1000 nM | 35 nM | > 1000 nM | > 1000 nM
